Results as given in ChEMBL document CHEMBL1201862, “PubChem BioAssay data set” (2004).
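Grown in 96-well plates, cells were treated for 48 hours with each compound at five concentrations. Insufficient inhibition: endpoint recorded as highest concentration tested. GI50 = concentration required for 50% inhibition of growth.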 The source made the active and inactive calls. Cut-off read from the data, not from the text of the source: active = GI50 up to about 1.1 µM and inactive = higher.

Experiments:
Experiment in all cases: DTP human tumour cell line panel, 48 h
786-0 = test system: 786-0
A498 = test system: A498
A549 = test system: A549
ACHN = test system: ACHN
BT-549 = test system: BT-549
CAKI-1 = test system: CAKI-1
CCRF-CEM = test system: CCRF-CEM
COLO 205 = test system: COLO 205
DU-145 = test system: DU-145
EKVX = test system: EKVX
HCC 2998 = test system: HCC 2998
HCT-116 = test system: HCT-116
HCT-15 = test system: HCT-15
HL-60 = test system: HL-60
HOP-62 = test system: HOP-62
HOP-92 = test system: HOP-92
HT-29 = test system: HT-29
IGROV-1 = test system: IGROV-1
K562 = test system: K562
KM12 = test system: KM12
LOX IMVI = test system: LOX IMVI
M14 = test system: M14
MCF7 = test system: MCF7
MDA-MB-231 = test system: MDA-MB-231
MDA-MB-435 = test system: MDA-MB-435
MDA-N = test system: MDA-N
MOLT-4 = test system: MOLT-4
Malme-3M = test system: Malme-3M
NCI-H226 = test system: NCI-H226
NCI-H23 = test system: NCI-H23
NCI-H460 = test system: NCI-H460
NCI-H522 = test system: NCI-H522
NCI/ADR-RES = test system: NCI/ADR-RES
OVCAR-3 = test system: OVCAR-3
OVCAR-4 = test system: OVCAR-4
OVCAR-5 = test system: OVCAR-5
OVCAR-8 = test system: OVCAR-8
PC-3 = test system: PC-3
RPMI-8226 = test system: RPMI-8226
RXF 393 = test system: RXF 393
SF-268 = test system: SF-268
SF-295 = test system: SF-295
SF-539 = test system: SF-539
SK-MEL-28 = test system: SK-MEL-28
SK-MEL-2 = test system: SK-MEL-2
SK-MEL-5 = test system: SK-MEL-5
SK-OV-3 = test system: SK-OV-3
SN12C = test system: SN12C
SNB-19 = test system: SNB-19
SNB-75 = test system: SNB-75
SR = test system: SR
SW-620 = test system: SW-620
T47D = test system: T47D
TK-10 = test system: TK-10
U-251 = test system: U-251
UACC-257 = test system: UACC-257
UACC-62 = test system: UACC-62
UO-31 = test system: UO-31
Hs-578T = test system: Hs-578T

## O=C(CN1CCN(Cc2ccccc2)CC1)c1ccc2[nH]c(=O)oc2c1
786-0
  GI50: > 100 µM (inactive)
A498
  GI50: > 100 µM (inactive)
A549
  GI50: > 100 µM (inactive)
ACHN
  GI50: > 100 µM (inactive)
BT-549
  GI50: > 100 µM (inactive)
CAKI-1
  GI50: > 100 µM (inactive)
CCRF-CEM
  GI50: > 100 µM (inactive)
COLO 205
  GI50: > 100 µM (inactive)
DU-145
  GI50: > 100 µM (inactive)
EKVX
  GI50: > 66.2 µM (inactive)
HCC 2998
  GI50: > 100 µM (inactive)
HCT-116
  GI50: > 100 µM (inactive)
HCT-15
  GI50: > 100 µM
HL-60
  GI50: > 90.4 µM (inactive)
HOP-62
  GI50: > 100 µM (inactive)
HOP-92
  GI50: 53.1 µM (inactive)
HT-29
  GI50: > 100 µM (inactive)
IGROV-1
  GI50: 99.3 µM (inactive)
K562
  GI50: > 100 µM (inactive)
KM12
  GI50: > 100 µM (inactive)
LOX IMVI
  GI50: > 100 µM (inactive)
M14
  GI50: > 100 µM (inactive)
MCF7
  GI50: > 100 µM (inactive)
MDA-MB-231
  GI50: > 100 µM (inactive)
MDA-MB-435
  GI50: > 30.5 µM (inactive)
MDA-N
  GI50: > 100 µM (inactive)
MOLT-4
  GI50: > 100 µM (inactive)
Malme-3M
  GI50: 0.845 µM (active)
NCI-H226
  GI50: > 50.6 µM (inactive)
NCI-H23
  GI50: > 100 µM (inactive)
NCI-H460
  GI50: > 100 µM (inactive)
NCI-H522
  GI50: 74.5 µM (inactive)
NCI/ADR-RES
  GI50: > 100 µM (inactive)
OVCAR-3
  GI50: > 100 µM (inactive)
OVCAR-4
  GI50: > 100 µM (inactive)
OVCAR-5
  GI50: > 100 µM (inactive)
OVCAR-8
  GI50: > 100 µM (inactive)
PC-3
  GI50: > 100 µM (inactive)
RPMI-8226
  GI50: > 100 µM (inactive)
RXF 393
  GI50: > 100 µM (inactive)
SF-268
  GI50: > 100 µM (inactive)
SF-295
  GI50: > 100 µM (inactive)
SF-539
  GI50: > 100 µM (inactive)
SK-MEL-28
  GI50: > 100 µM (inactive)
SK-MEL-2
  GI50: > 100 µM (inactive)
SK-MEL-5
  GI50: > 100 µM (inactive)
SK-OV-3
  GI50: > 100 µM (inactive)
SN12C
  GI50: > 100 µM (inactive)
SNB-19
  GI50: > 100 µM (inactive)
SNB-75
  GI50: > 41.3 µM (inactive)
SR
  GI50: > 67.1 µM (inactive)
SW-620
  GI50: > 100 µM (inactive)
T47D
  GI50: > 100 µM (inactive)
TK-10
  GI50: > 100 µM (inactive)
U-251
  GI50: > 88.7 µM (inactive)
UACC-257
  GI50: > 100 µM (inactive)
UACC-62
  GI50: > 100 µM (inactive)
UO-31
  GI50: 60.7 µM (inactive)

## NC(=S)N/N=C(\Cc1nc2ccc(Cl)cc2nc1O)C(=O)Nc1ccc(Cl)cc1
786-0
  GI50: > 100 µM (inactive)
A549
  GI50: > 100 µM (inactive)
ACHN
  GI50: > 100 µM (inactive)
BT-549
  GI50: > 100 µM (inactive)
CAKI-1
  GI50: > 100 µM (inactive)
CCRF-CEM
  GI50: > 100 µM (inactive)
COLO 205
  GI50: > 100 µM (inactive)
DU-145
  GI50: > 100 µM (inactive)
EKVX
  GI50: 76 µM (inactive)
HCC 2998
  GI50: > 100 µM (inactive)
HCT-116
  GI50: > 100 µM (inactive)
HCT-15
  GI50: > 100 µM
HL-60
  GI50: > 100 µM (inactive)
HOP-62
  GI50: > 100 µM (inactive)
HOP-92
  GI50: 40.3 µM (inactive)
HT-29
  GI50: > 100 µM (inactive)
Hs-578T
  GI50: > 100 µM (inactive)
IGROV-1
  GI50: > 100 µM (inactive)
KM12
  GI50: > 100 µM (inactive)
LOX IMVI
  GI50: > 100 µM (inactive)
M14
  GI50: > 100 µM (inactive)
MCF7
  GI50: > 100 µM (inactive)
MDA-MB-231
  GI50: > 100 µM (inactive)
MDA-MB-435
  GI50: > 100 µM (inactive)
MOLT-4
  GI50: > 100 µM (inactive)
NCI-H226
  GI50: 96.2 µM (inactive)
NCI-H23
  GI50: > 100 µM (inactive)
NCI-H460
  GI50: > 100 µM (inactive)
NCI-H522
  GI50: > 100 µM (inactive)
NCI/ADR-RES
  GI50: > 100 µM (inactive)
OVCAR-3
  GI50: > 100 µM (inactive)
OVCAR-4
  GI50: > 100 µM (inactive)
OVCAR-5
  GI50: > 100 µM (inactive)
OVCAR-8
  GI50: > 100 µM (inactive)
PC-3
  GI50: > 100 µM (inactive)
RXF 393
  GI50: > 100 µM (inactive)
SF-268
  GI50: > 100 µM (inactive)
SF-295
  GI50: > 100 µM (inactive)
SF-539
  GI50: > 100 µM (inactive)
SK-MEL-28
  GI50: > 100 µM (inactive)
SK-MEL-2
  GI50: > 100 µM (inactive)
SK-MEL-5
  GI50: > 100 µM (inactive)
SK-OV-3
  GI50: > 100 µM (inactive)
SN12C
  GI50: > 100 µM (inactive)
SNB-19
  GI50: > 100 µM (inactive)
SNB-75
  GI50: > 100 µM (inactive)
SW-620
  GI50: > 100 µM (inactive)
TK-10
  GI50: > 100 µM (inactive)
U-251
  GI50: > 100 µM (inactive)
UACC-257
  GI50: > 100 µM (inactive)
UACC-62
  GI50: > 100 µM (inactive)
UO-31
  GI50: 40 µM (inactive)
